Data as given in patent US20230240291A1, “FUNGICIDAL COMPOSITIONS” (SYNGENTA CROP PROTECTION AG, priority 2020, published 2023).
*1 amine or outer side, *2 acyl side, *3 side chain or, on linkers, in order; H or OH if unused. Where a SMILES comes first, the peptide text is derived from it. [ ]: non-standard residue; d: D form. ξ: configuration not given here. ξNMeVal(3-OH) = CNC(C(=O)O)C(C)(C)O; NMeF = CN[CH](Cc1ccccc1)C(=O)O; X1 = CCC(C)C(O[*:1])C(=O)[*:2]; NMeV = CN[CH](C(=O)O)C(C)C

Assays:
[1] = tested on: Alternaria solani; assay type: cell-based; settings: 48 hours
Experimental: (§1) Mycelia fragments or conidia suspensions of a fungus, prepared either freshly from liquid cultures of the fungus or from cryogenic storage, are directly mixed into nutrient broth. DMSO solutions of the test compound (max. 10 mg/mL) is diluted with 0.025% Tween20 by factor 50 and 10 µL of this solution is pipetted into a microtiter plate (96-well format). The nutrient broth containing the fungal spores/mycelia fragments is then added to give an end concentration of the tested compound. The test plates are incubated in the dark at 24° C. and 96% relative humidity (rh). The inhibition of fungal growth is determined photometrically and visually after 3 - 7 days, depending on the pathosystem, and percent antifungal activity relative to the untreated check is calculated.
Conidia of the fungus from cryogenic storage were directly mixed into nutrient broth (PDB potato dextrose broth). After placing a DMSO solution of the test compositions into a microtiter plate (96-well format) the nutrient broth containing the fungal spores was added.

[2] = tested on: Botrytis cinerea; assay: microbe, parasite or virus in culture; assay type: cell-based; settings: 72 hours
Experimental: as §1, with “The nutrient broth containing the fungal spores/mycelia fragments is then added to give an end concentration of the tested compound.” left out
Conidia of the fungus from cryogenic storage were directly mixed into nutrient broth (PDB potato dextrose broth). After placing a DMSO solution of the test compositions into a microtiter plate (96-well format), the nutrient broth containing the fungal spores was added.

CCC(C)C1NC(=O)C2CCCN2C(=O)C(Cc2ccccc2)N(C)C(=O)C(Cc2ccccc2)NC(=O)C(C(C)C)N(C)C(=O)C(C(C)CC)OC(=O)C(C(C)(C)O)N(C)C(=O)C(CC(C)C)NC(=O)C(C(C)C)N(C)C1=O (centres unmarked) [Aureobasidin A] (cyclo([ξNMeVal(3-OH)][X1][NMeV]F[NMeF]PI[NMeV]L); configuration not given here)
(A) inhibition ([1]; Aureobasidin A 0.005 ppm alone, growth inhibition, photometric): 11% | (A) inhibition ([2]; Aureobasidin A 0.01 ppm alone, fludioxonil table): 22% | (A) inhibition ([2]; Aureobasidin A 0.01 ppm alone, growth inhibition, photometric, iprodione table): 18% | (A) inhibition ([2]; Aureobasidin A 0.02 ppm alone, iprodione table): 60%

N#Cc1c[nH]cc1-c1cccc2c1OC(F)(F)O2 [Fludioxonil, fludioxonil]
inhibition at […] ([2]; Botrytis cinerea, Fludioxonil 0.0063 ppm alone, read-out: (B) inhibition): 0%

C=CCOC(Cn1ccnc1)c1ccc(Cl)cc1Cl (centres unmarked) [Imazalil]
(B) inhibition ([1]; component (B) 0.5 ppm alone): 35%

CC(C)NC(=O)N1CC(=O)N(c2cc(Cl)cc(Cl)c2)C1=O [Iprodione, iprodione]
inhibition at 0.125 ppm ([2]; Botrytis cinerea, Iprodione 0.125 ppm alone, read-out: (B) inhibition): 4% | inhibition at 0.25 ppm ([2]; Botrytis cinerea, Iprodione 0.250 ppm alone, read-out: (B) inhibition): 0%
